Assay results published in patent US20100015262A1, “NOVEL USE OF COMPOUNDS AND COMBINATIONS OF COMPOUNDS FOR IMPROVING THE PHYSICAL APPEARANCE” (priority 2006, published 2010).
Like-named read-outs stand apart in the source and are kept apart here.

Tested on: C3H10T1/2 cells
Experiment: Adipocyte differentiation: lipid accumulation in induced C3H10T1/2 pre-adipocytes (Bodipy stain, Cellomics ArrayScan)
Format: cell-based
Conditions: for activity at 0.5 µM / activity at 1 µM / activity at 2 µM / activity at 5 µM / activity at 25 µM: Mus musculus, C3H 10T1/2, 168 h, read-out: Cellular lipids (in % of differentiated cells); for activity at 0.5 µM / activity at 1 µM / activity at 2 µM / activity at 5 µM / activity at 25 µM / Cellular lipids (in % of differentiated cells): 7 days; for Effect on amount of cytoplasmic lipids (in words): single substances, summary of Table 1
Method: In the present invention, the effect of agents was identified by using cellular assays that measure the effect on adipocyte differentiation. Adherent pre-adipocyte cells, C3H10T1/2, were used; they were cultured in complete DMEM/FCS, i.e. Dulbecco's modified essential medium (DMEM) supplemented with penicillin/streptomycin [50 U penicillin/ml, […] streptomycin/ml] and 10% fetal calf serum (FCS) and passaged every 3-5 days. For experiments, C3H10T1/2 cells were re-suspended in DMEM/FCS without phenol red and seeded at […] cells/per well in collagen I pre-coated 24-well plates. After 2-3 days cells reached confluence. Culture medium was changed and cell differentiation was induced by adding induction medium consisting of rosiglitazone and insulin (at 50 μmol/L and 200 nmol/L, respectively). In some cases the induction medium consisted of […] dexamethasone and 500 μmol/L 3-isobutyl-1-methylxanthine. Control cells were cultured in DMEM/FCS containing only insulin. Where appropriate, substances were added to the differentiation medium at various concentrations at the time of induction, except for carotenoids which were added at the beginning of culture in order to preload the cells. The induction medium was changed every 2-3-days. Seven days after induction, cells were fixed in 60% isopropanol (40% water). After two washes in phosphate buffered saline (PBS), cells were stained with the neutral lipid stain Bodipy® 493/505 (0.5 μg/ml) and the nuclear stain Hoechst 33342 dye (2 μg/ml) for 30 minutes in the dark. After washing with PBS, the stained cells were stored at 4° C. in PBS. The extent of differentiation was quantified in a Cellomics array™ Array Scan V^Ti (http://www.cellomics.com/) using the Spot Detector BioApplication that had been optimized for detecting lipid accumulation in differentiated adipocytes. Effects of treatments were quantified using the ‘SpotCount’ and ‘SpotCountPerObject’ parameter that adequately reflects the differentiation status of the adipocytes.
The tested compounds were purchased from Sigma (PUFAs, i.e. DHA docosahexaenoic acid; EPA eicosapentaenoic acid) or Cayman Chemicals hydroxytyrosol), from DSM (hydroxytyrosol, resveratrol, genistein) or from Ehrenstorfer GmbH, Augsburg Germany (carotenoids like β-carotene, β-cryptoxanthin, lutein, lycopene, zeaxanithin); rose hip concentrate/powder was purchased from HybenVital (Denmark). The compounds to be tested were dissolved in dimethylsulfoxide (DMSO) or—in the case of carotenoids—in tetrahydrofuran (THF). Cells were preloaded with carotenoids, i.e. these were added to the culture medium when cells were seeded into test plates. Carotenoids were freshly prepared for every experimental series. Vehicle solution was added to reach a final concentration of 0.5% (v/v).
We further tested the effect of substances that were added to cultures concomitantly. The obtained values were then compared to the sum of the effect of individual substances: positive values indicate that two substances interact synergistically and thus surpass the individual effects.

[1] = 0.5 μM carotenoid (cells preloaded) + inducers
[2] = 1.0 μM carotenoid (cells preloaded) + inducers
[3] = 2.0 μM carotenoid (cells preloaded) + inducers
[4] = 1 μM compound + inducers of differentiation
[5] = 5 μM compound + inducers of differentiation
[6] = 25 μM compound + inducers of differentiation

Compound: CC(C)=CCC/C(C)=C/C=C/C(C)=C/C=C/C(C)=C/C=C/C=C(C)/C=C/C=C(C)/C=C/C=C(\C)CCC=C(C)C [lycopene]
- activity at 0.5 µM [1]: 44.5%
- activity at 1 µM [2]: 45.1%
- activity at 2 µM [3]: 24.6%

Compound: OCCc1ccc(O)c(O)c1 [Hydroxytyrosol]
- activity at 1 µM [4]: 103%
- activity at 5 µM [5]: 103%
- activity at 25 µM [6]: 68.3%

Compound: CC/C=C\C/C=C\C/C=C\C/C=C\C/C=C\C/C=C\CCC(=O)O [DHA, docosahexaenoic acid]
- activity at 1 µM [4]: 95.9%
- activity at 5 µM [5]: 91.5%
- activity at 25 µM [6]: 66.2%

Compound: CC/C=C\C/C=C\C/C=C\C/C=C\C/C=C\CCCC(=O)O [EPA, eicosapentaenoic acid]
- activity at 1 µM [4]: 86.6%
- activity at 5 µM [5]: 77%
- activity at 25 µM [6]: 74.1%

Compound: (−)-epigallocatechin gallate [EGCG]
- Cellular lipids (in % of differentiated cells) [4]: 113.1%
- Cellular lipids (in % of differentiated cells) [5]: 98.9%
- Cellular lipids (in % of differentiated cells) [6]: 93.1%
- Effect on amount of cytoplasmic lipids (in words): only minor effects

Compound: CC1=C[C@H](O)CC(C)(C)[C@H]1/C=C/C(C)=C/C=C/C(C)=C/C=C/C=C(C)/C=C/C=C(C)/C=C/C1=C(C)C[C@@H](O)CC1(C)C [lutein]
- activity at 0.5 µM [1]: 94.3%
- activity at 1 µM [2]: 85.6%
- activity at 2 µM [3]: 72.1%

Compound: Oc1ccc(C=Cc2cc(O)cc(O)c2)cc1 [Resveratrol, resveratrol]
- activity at 1 µM [4]: 106%
- activity at 5 µM [5]: 102%
- activity at 25 µM [6]: 103%
- Effect on amount of cytoplasmic lipids (in words): only minor effects

Compound: O=c1c(-c2ccc(O)cc2)coc2cc(O)cc(O)c12 [Genistein, genistein]
- activity at 1 µM [4]: 112%
- activity at 5 µM [5]: 99.7%
- activity at 25 µM [6]: 95.9%
- Effect on amount of cytoplasmic lipids (in words): only minor effects

Compound: CC1=C(/C=C/C(C)=C/C=C/C(C)=C/C=C/C=C(C)/C=C/C=C(C)/C=C/C2=C(C)C[C@@H](O)CC2(C)C)C(C)(C)C[C@H](O)C1 [zeaxanthin]
- Cellular lipids (in % of differentiated cells) [1]: 56.8%
- Cellular lipids (in % of differentiated cells) [2]: 39.5%
- Cellular lipids (in % of differentiated cells) [3]: 43.7%

Compound: CC1=C(/C=C/C(C)=C/C=C/C(C)=C/C=C/C=C(C)/C=C/C=C(C)/C=C/C2=C(C)C[C@@H](O)CC2(C)C)C(C)(C)CCC1 [β-cryptoxanthin]
- Cellular lipids (in % of differentiated cells) [1]: 47.5%
- Cellular lipids (in % of differentiated cells) [2]: 34.9%
- Cellular lipids (in % of differentiated cells) [3]: 16.2%

Compound: CC1=C(/C=C/C(C)=C/C=C/C(C)=C/C=C/C=C(C)/C=C/C=C(C)/C=C/C2=C(C)CCCC2(C)C)C(C)(C)CCC1 [beta-carotene, β-carotene]
- activity at 0.5 µM [1]: 93%
- activity at 1 µM [2]: 66.7%
- activity at 2 µM [3]: 69.4%
